Source: article PMC10176470, “Engaging a Non-catalytic Cysteine Residue Drives Potent and Selective Inhibition of Caspase-6” (Journal of the American Chemical Society, 2023)

Key:
Experiment in all cases: SILAC proteomics / in-gel fluorescence, competition of probe 13-t labeling by 3a
[1] = target: proteins of HEK293T cells transiently overexpressing caspase-6 (Homo sapiens, UniProt P38646); conditions: Comp; protein HSPA9 P38646
[2] = target: proteins of HEK293T cells transiently overexpressing caspase-6 (Homo sapiens, UniProt P11388); conditions: Comp; protein TOP2A P11388
[3] = target: proteins of HEK293T cells transiently overexpressing caspase-6 (Homo sapiens, UniProt Q14204)
[4] = target: proteins of HEK293T cells transiently overexpressing caspase-6 (Homo sapiens, UniProt Q9Y262)
[5] = target: proteins of HEK293T cells transiently overexpressing caspase-6 (Homo sapiens, UniProt P62241); conditions: Comp; protein RPS8 P62241
[6] = target: proteins of HEK293T cells transiently overexpressing caspase-6 (Homo sapiens, UniProt Q7KZF4); conditions: Comp; protein SND1 Q7KZF4
[7] = target: proteins of HEK293T cells transiently overexpressing caspase-6 (Homo sapiens, UniProt Q15233); conditions: Comp; protein NONO Q15233
[8] = target: proteins of HEK293T cells transiently overexpressing caspase-6 (Homo sapiens, UniProt Q13148); conditions: Comp; protein TARDBP Q13148
[9] = target: proteins of HEK293T cells transiently overexpressing caspase-6 (Homo sapiens, UniProt P33992); conditions: Comp; protein MCM5 P33992
[10] = target: proteins of HEK293T cells transiently overexpressing caspase-6 (Homo sapiens, UniProt P62424); conditions: Comp; protein RPL7A P62424
[11] = target: T1, proteins of HEK293T cells transiently overexpressing caspase-6 (Homo sapiens, UniProt O60506)
T1 sequence (O60506 1-623): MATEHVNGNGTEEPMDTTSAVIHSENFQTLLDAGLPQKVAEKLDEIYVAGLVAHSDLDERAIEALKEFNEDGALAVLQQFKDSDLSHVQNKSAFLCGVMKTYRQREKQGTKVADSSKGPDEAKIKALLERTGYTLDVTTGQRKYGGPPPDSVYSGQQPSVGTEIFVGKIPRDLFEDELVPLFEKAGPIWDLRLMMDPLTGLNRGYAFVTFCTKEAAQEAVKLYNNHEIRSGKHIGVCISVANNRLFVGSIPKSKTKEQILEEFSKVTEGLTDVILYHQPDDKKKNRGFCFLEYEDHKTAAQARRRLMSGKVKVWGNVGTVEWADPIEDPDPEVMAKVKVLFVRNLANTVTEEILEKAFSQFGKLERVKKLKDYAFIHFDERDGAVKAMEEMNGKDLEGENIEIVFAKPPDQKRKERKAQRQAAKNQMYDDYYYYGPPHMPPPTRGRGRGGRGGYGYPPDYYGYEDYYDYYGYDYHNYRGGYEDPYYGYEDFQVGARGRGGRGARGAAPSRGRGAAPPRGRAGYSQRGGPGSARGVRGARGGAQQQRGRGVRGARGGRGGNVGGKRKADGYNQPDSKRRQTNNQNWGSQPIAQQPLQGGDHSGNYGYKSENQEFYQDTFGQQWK

[12] = target: proteins of HEK293T cells transiently overexpressing caspase-6 (Homo sapiens, UniProt P13667); conditions: Comp; protein PDIA4 P13667
[13] = target: proteins of HEK293T cells transiently overexpressing caspase-6 (Homo sapiens, UniProt P38606); conditions: Comp; protein ATP6V1A P38606
[14] = target: proteins of HEK293T cells transiently overexpressing caspase-6 (Homo sapiens, UniProt Q9Y2X3); conditions: Comp; protein NOP58 Q9Y2X3
[15] = target: T2, proteins of HEK293T cells transiently overexpressing caspase-6 (Homo sapiens, UniProt P30084)
T2 sequence (P30084 28-290): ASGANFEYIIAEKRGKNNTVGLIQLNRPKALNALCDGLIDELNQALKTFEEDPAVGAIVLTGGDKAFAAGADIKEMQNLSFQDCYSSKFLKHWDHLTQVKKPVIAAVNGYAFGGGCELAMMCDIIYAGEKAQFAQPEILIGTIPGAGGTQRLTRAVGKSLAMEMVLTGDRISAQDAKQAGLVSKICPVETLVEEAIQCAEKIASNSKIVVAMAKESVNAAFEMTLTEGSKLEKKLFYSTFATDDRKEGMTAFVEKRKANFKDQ

[16] = protein DYNC1H1 (Q14204), Exp Comp, analysis C6, p 0.1250, 4 peptides
[17] = protein EIF3L (Q9Y262), Exp Comp, analysis C6, p 0.8438, 6 peptides
[18] = protein SYNCRIP (O60506), Exp Comp, analysis C6, p 0.0625, 5 peptides
[19] = protein ECHS1 (P30084), Exp Comp, analysis C6, p 0.1250, 5 peptides

Sequence of proteins of HEK293T cells transiently overexpressing caspase-6 (Homo sapiens, UniProt Q14204) (Q14204 whole entry): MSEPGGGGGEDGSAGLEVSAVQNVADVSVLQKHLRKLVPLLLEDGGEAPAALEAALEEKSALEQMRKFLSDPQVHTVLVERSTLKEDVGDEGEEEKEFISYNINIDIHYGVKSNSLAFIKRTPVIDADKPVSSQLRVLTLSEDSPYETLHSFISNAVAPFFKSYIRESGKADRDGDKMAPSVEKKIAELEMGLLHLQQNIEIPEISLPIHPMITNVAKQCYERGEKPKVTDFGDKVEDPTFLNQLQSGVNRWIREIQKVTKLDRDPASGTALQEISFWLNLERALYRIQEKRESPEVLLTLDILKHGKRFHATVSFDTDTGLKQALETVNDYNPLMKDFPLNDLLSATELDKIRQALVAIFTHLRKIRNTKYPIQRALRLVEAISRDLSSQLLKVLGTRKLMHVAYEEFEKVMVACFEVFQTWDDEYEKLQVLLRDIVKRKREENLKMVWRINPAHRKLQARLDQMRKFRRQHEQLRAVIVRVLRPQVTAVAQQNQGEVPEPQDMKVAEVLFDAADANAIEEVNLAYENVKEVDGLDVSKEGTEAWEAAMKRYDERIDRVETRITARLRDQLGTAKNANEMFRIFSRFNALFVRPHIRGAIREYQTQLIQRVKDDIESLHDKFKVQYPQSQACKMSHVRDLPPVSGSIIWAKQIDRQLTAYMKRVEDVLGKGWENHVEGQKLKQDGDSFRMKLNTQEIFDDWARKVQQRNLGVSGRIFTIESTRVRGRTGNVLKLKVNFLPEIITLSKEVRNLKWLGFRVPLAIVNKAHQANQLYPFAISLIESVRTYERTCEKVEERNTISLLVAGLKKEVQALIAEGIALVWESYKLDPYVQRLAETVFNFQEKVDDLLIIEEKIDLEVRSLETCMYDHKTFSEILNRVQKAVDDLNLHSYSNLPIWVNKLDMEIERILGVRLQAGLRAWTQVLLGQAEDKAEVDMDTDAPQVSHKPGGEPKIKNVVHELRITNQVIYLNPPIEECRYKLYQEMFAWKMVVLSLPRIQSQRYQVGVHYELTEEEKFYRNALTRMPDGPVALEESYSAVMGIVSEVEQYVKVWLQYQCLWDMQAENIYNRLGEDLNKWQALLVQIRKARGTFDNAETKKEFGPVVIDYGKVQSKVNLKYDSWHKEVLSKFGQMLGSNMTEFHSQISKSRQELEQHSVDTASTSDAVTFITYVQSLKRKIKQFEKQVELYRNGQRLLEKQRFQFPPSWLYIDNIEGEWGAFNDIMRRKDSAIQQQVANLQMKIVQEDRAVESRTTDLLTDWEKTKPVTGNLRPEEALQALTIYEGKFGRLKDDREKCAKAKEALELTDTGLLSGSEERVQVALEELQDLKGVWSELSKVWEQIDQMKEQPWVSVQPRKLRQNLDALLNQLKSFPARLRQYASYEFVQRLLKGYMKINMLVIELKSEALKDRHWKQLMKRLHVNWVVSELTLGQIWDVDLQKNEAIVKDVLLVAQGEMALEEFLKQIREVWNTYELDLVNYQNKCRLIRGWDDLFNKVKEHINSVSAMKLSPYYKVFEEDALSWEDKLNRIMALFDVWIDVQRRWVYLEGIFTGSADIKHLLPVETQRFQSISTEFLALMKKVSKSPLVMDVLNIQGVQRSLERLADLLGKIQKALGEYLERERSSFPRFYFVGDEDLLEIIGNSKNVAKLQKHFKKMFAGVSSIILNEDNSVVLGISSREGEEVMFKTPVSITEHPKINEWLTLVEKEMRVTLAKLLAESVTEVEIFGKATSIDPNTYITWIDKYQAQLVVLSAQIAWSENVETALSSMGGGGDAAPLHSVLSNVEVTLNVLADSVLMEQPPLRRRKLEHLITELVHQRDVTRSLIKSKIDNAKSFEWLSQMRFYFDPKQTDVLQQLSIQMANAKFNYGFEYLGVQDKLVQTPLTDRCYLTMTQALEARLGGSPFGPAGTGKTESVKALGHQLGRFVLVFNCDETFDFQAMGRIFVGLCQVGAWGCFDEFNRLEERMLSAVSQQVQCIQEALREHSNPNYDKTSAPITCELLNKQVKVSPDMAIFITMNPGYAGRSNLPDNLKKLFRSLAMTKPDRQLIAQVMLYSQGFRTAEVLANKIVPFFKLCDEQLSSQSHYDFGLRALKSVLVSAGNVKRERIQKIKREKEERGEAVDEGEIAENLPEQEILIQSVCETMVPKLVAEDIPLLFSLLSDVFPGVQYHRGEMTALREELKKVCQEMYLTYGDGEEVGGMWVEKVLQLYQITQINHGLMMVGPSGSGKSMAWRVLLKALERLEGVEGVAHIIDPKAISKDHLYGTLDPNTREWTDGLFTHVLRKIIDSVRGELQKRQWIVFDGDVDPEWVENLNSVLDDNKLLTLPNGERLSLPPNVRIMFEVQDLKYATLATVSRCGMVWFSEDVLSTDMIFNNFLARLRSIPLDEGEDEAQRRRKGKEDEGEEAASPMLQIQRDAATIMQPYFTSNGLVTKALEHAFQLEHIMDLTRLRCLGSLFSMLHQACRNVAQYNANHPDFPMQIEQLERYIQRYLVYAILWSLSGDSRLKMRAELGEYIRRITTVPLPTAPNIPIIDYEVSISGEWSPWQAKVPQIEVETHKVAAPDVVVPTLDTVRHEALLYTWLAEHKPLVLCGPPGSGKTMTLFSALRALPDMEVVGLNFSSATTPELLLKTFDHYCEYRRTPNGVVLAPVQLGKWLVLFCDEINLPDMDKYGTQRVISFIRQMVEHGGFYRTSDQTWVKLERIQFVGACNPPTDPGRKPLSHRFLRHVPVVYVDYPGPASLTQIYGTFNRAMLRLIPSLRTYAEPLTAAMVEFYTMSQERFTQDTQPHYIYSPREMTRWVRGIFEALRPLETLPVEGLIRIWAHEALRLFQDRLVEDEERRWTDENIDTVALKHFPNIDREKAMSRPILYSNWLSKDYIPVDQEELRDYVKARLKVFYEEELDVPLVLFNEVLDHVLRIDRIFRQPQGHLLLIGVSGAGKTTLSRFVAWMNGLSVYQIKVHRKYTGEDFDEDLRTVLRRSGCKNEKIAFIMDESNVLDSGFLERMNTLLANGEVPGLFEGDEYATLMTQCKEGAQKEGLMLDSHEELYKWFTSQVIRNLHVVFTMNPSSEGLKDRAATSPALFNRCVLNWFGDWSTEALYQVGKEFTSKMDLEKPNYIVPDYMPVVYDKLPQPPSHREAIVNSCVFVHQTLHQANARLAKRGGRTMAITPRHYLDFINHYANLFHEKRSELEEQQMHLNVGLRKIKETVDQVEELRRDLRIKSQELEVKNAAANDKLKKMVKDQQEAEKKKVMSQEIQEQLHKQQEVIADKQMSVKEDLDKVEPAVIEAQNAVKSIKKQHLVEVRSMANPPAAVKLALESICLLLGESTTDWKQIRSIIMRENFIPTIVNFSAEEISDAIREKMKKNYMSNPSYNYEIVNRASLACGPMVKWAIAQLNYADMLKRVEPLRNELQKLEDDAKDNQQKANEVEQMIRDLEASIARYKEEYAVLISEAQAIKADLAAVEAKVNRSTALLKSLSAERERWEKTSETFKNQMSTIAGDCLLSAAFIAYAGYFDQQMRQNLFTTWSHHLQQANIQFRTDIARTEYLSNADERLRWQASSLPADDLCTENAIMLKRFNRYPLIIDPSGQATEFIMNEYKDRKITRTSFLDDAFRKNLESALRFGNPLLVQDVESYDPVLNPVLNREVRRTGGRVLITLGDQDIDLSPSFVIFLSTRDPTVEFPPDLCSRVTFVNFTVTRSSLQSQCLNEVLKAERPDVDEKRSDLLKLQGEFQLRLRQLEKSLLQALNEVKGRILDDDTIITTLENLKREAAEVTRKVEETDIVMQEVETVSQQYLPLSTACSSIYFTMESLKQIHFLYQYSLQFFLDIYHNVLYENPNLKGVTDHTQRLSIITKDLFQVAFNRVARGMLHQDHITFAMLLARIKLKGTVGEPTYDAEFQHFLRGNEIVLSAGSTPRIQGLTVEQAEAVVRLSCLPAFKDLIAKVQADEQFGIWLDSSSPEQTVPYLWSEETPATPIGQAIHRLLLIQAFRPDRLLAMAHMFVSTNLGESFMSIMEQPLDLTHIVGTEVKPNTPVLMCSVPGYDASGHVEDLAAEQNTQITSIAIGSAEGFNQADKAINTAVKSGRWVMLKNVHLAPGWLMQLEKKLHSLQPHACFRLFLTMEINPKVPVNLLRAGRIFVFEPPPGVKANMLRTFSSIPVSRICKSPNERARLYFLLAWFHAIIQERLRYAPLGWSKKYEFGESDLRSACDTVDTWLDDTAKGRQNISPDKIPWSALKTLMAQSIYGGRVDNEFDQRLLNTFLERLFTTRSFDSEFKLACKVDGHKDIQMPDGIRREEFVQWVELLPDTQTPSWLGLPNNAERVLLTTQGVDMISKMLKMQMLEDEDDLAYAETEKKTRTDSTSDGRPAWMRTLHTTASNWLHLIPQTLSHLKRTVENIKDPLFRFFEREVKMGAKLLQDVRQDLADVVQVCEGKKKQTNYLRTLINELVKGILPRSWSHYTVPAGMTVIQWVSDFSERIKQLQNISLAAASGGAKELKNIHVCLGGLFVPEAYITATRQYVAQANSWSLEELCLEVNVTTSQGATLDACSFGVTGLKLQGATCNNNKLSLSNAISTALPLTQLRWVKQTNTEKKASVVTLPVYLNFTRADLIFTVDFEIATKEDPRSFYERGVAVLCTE
Sequence of proteins of HEK293T cells transiently overexpressing caspase-6 (Homo sapiens, UniProt Q9Y262) (Q9Y262 whole entry): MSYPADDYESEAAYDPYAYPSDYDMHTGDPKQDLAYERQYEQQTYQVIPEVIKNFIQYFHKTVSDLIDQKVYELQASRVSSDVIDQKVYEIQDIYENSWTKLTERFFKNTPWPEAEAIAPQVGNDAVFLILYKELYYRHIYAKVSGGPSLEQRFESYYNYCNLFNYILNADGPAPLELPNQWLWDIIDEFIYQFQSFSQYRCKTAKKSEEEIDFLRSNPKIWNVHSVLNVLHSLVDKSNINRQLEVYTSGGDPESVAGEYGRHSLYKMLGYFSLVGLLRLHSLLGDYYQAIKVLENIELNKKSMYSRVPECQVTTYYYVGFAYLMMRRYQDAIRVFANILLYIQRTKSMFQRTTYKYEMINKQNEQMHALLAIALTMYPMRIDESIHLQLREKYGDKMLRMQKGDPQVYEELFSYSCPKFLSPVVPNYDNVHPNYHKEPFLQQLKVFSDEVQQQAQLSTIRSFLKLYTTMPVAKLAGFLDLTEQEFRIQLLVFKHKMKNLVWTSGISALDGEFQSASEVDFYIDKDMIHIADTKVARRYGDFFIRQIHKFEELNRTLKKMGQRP

## C=CS(=O)(=O)N1C[C@H](C(=O)Nc2ccc(OC(F)(F)F)cc2)C[C@@H](c2ccccc2)C1 [3a]
[1]
  enrich.exp.med: 0.6522
[2]
  enrich.exp.med: 0.7274
[3]; Comp, protein DYNC1H1 Q14204
  enrich.exp.med: 1.335
[3]; [16]
  enrich.exp.med.lin: 2.5227
  enrich.exp.med.log2: 1.335
[4]; Comp, protein EIF3L Q9Y262
  enrich.exp.med: 1.059
[4]; [17]
  enrich.exp.med.lin: 2.083
  enrich.exp.med.log2: 1.059
[5]
  enrich.exp.med: 0.6264
[6]
  enrich.exp.med: 0.6493
[7]
  enrich.exp.med: 0.6126
[8]
  enrich.exp.med: 0.8327
[9]
  enrich.exp.med: 0.8256
[10]
  enrich.exp.med: 0.707
[11]; Comp, protein SYNCRIP O60506
  enrich.exp.med: 1.48
[11]; [18]
  enrich.exp.med.lin: 2.7903
  enrich.exp.med.log2: 1.48
[12]
  enrich.exp.med: 0.6419
[13]
  enrich.exp.med: 0.8033
[14]
  enrich.exp.med: 0.7213
[15]; Comp, protein ECHS1 P30084
  enrich.exp.med: 2.261
[15]; [19]
  enrich.exp.med.lin: 4.794
  enrich.exp.med.log2: 2.261
